{
  "source": "patent US7695725B2",
  "about": "“Modified free-living microbes, vaccine compositions and methods of use thereof” (Aduro Biotech, priority 2003, dated 2010)",
  "tested_on": "Listeria monocytogenes",
  "assay": "Bacterial titer / log attenuation of Listeria after compound 1 treatment",
  "type": "cell-based",
  "conditions": "e.g. at 1 μM",
  "experimental": "A procedure was done similarly to Example 1 only using the compound β-alanine, N-(acridin-9-yl), 2-[bis(2-chloroethyl)amino]ethyl ester (Compound 1, ChemSyn, Harrisonville, Mo., see U.S. Pat. No. 6,093,725). The Listeria strains used were DP-L4056 and DP-L4017. Compound 1 (1 mM in acidic BBS (blood bank saline), 135 μl of 1.48 M H3PO4 per 100 mL BBS) was added to 5 mL of bacteria at 1×10^8 CFU/mL to concentrations of 0, 0.5, 1, 2, 5, and 10 μM and the samples incubated for 2 hours at room temperature. After the incubation, the bacterial titer and antigen presentation was assessed as per Example 1.",
  "data": [
    {"smiles": "O=C(CCNc1c2ccccc2nc2ccccc12)OCCN(CCCl)CCCl", "note": "[compound 1, β-alanine, N-(acridin-9-yl), 2-[bis(2-chloroethyl)amino]ethyl ester]", "values": [
      {"measurement": "attenuation of proliferation with sufficient antigen presentation", "value": "effective"}
    ]}
  ]
}
